Measurements taken from patent US11035851B2, “Method of identifying cosmetic agents for moisturizing skin” (The Procter & Gamble Company, priority 2016, dated 2021).

System: epidermal gene expression (GeneTitan U219 probes)
Experiment: Genomic evaluation of LCM-derived epidermal samples before vs. after surfactant (SLS) challenge, leg controlled application test
Format: in vivo, human
Conditions: for Significant Beyond Chance / Number of Probes (significantly different): summer, after 5 day 1% SLS treatment vs. baseline; for Number of Probes (significantly different): p<0.05, approximately 2465 probes expected by chance
Procedure: 25 ng of purified RNA is converted to biotin-labeled cRNA copies using the Affymetrix HT 3′ IVT Express kit (Cat. #901253) and protocol provided as executed on a Beckman Biomek® FX^p Laboratory Automation Workstation (Beckman Cat. #A31842), or equivalent. In brief, 500 ng of total RNA is reverse-transcribed into cDNA copies using oligo-dT primers and reverse transcriptase followed by second strand synthesis using DNA polymerase I. Following purification, the cDNA library is used as a template for generating biotin-labeled cRNA copies using T7 RNA polymerase and biotinylated dUTP. Biotinylated cRNA is fragmented by limited alkaline hydrolysis and then hybridized overnight to Affymetrix GeneTitan® U219 array plates using the Affymetrix GeneTitan® instrument and protocol provided. Following processing, chip images are converted to numeric data using the PLIER algorithm as executed in the Affymetrix GeneChip Expression Console.
A clinical study was conducted to conduct a genomic evaluation of subjects with inherently dry skin versus subjects with inherently normal moisturized skin in the winter season (phase 1) and summer season (phase 2. The clinical study design for each phase was a leg controlled application test (LCAT) protocol. The phase 2 portion of the test also included a determination of genomic differences between subjects that are treated with a drying agent (“surfactant challenged”).
Phase 2 clinical design: human subjects from phase 1 were recalled during the summer season (i.e., June-August) and maintained in their respective cohort groups. A cohort of 29 subjects was recalled for the inherently dry skin group, while a cohort of 12 subjects was recalled for the inherently normal moisturized skin group. All subjects were pre-conditioned with Olay® soap bar for 7 days (days −7 to −1) followed by a 2 day regression. Subjects were instructed to abstain from washing their legs with any products and from using any leave-on products on their legs during the pretreatment period. Dry Skin Grade measurements, full thickness biopsies, and other skin health measurements (e.g., TEWL) were taken on day 1. Subjects with a dry skin score of greater than 4.0 were excluded from biopsies. The full thickness biopsies were later separated into epidermal and dermal sections via LCM, and the epidermal section was used for genomic analysis.
On days 3-7 (5 consecutive days) subjects who have a Dryness Grade less than 3.0 on one or both legs continue on the study, all other subjects were excused from the study. The clinical staff conducted visual grading at a site adjacent to the biopsy site, followed by a surfactant challenge (i.e., treating the site with 1% sodium lauryl sulfate (“SLS”) solution and occluding the site with a Hill Top Chamber® brand occlusive patch test system for 30 minutes). Each day the dryness was visually graded prior to the SLS treatment. On day 8 (24 hrs. following Day 7), bio-instruments measures were taken, but biomarkers and biopsies were only taken if the surfactant challenged site has a Dryness Grade below 4.0.
Results: 237 LCM-derived epidermal samples were processed on GeneTitan® U219 chips as described above. Of these, 11 were statistical outliers that were eliminated from the data set. For purposes of statistical treatment, the left and right leg samples from each subject, at each phase of the study, were considered replicates. An ANOVA model was used to determine group differences.

[1] = P2 D5 Dry vs. P2 BL Dry: inherently dry skin
[2] = P2 D5 Healthy vs. P2 BL Healthy: inherently normal moisturized skin

## CCCCCCCCCCCCOS(=O)(=O)[O-].[Na+] [SLS, sodium lauryl sulfate]
[1]
  Significant Beyond Chance: Yes
  Number of Probes (significantly different): 10696
[2]
  Significant Beyond Chance: Yes
  Number of Probes (significantly different): 6110
Within dry skin or normal/healthy skin groups, summer phase
  Difference in probe expression, paired (within-group) comparison before vs. after SLS treatment: significant differences
